Results on 16 substances are retold here after patent publication US20250108088A1, “REGENERATIVE PEPTIDES AND METHODS FOR USE THEREOF” (priority 2023, published 2025).

The assay concerns Normal human dermal fibroblasts (HNDF). The experiment in a line: Myofibroblast transition assay (MFT), aSMA immunofluorescence. Type of assay: cell-based. The conditions noted are these: N = 3; for Myofibroblast transition (MFT), aSMA/cell, % change relative to control: TGF-Beta induced HNDF, control of no peptide; for MFT, Representative value from experiments (% change relative to control): most effective significant concentration of 10, 100, 1000 ng/ml. The text has this: The myofibroblast transition (MFT) assay determines the effect of the peptide on inhibiting the transition of fibroblasts to myofibroblasts. The extracellular matrix produced by myofibroblasts may be produced in excess and may not be remodeled during tissue healing, leaving behind the fibrous connective tissue that forms a scar. Thus, the ability to regulate the degree of MFT may enable control of scarring. To determine if the peptides provided herein affect MFT, the following assay was performed.
Normal human dermal fibroblasts (HNDF) were cultured in high glucose Dulbecco's modified eagle medium (DMEM) supplemented with 10% fetal bovine serum (FBS) and 5 ml of 10,000 units of penicillin/streptomycin. Cells were cultured on 10 cm plates with media changes every 2 days. Cells were passaged in 0.25% Trypsin/EDTA after achieving 80% confluency.
To induce myofibroblast transition (MFT), normal human dermal fibroblasts (HNDFs) were split from 1-10 cm plates to 5-96 well plates. Cells were then allowed to grow the next day. The following day, cells were serum starved (1% FBS in DMEM) for 4 hours prior to adding 20 ng/ml of TGF-Beta to all wells of the plate. 1000 μM of Vactosertib (TEW-7197/EW-7197) was added to serve as a positive control and different concentrations of peptides were added to serve as the test articles. The cells were then exposed to the compounds for 5 more days before fixation.
The cells were fixed in paraformaldehyde (PFA) for 10-15 minutes, then washed 2× in PBS. Cells were blocked in 4% BSA for 30 minutes at 23° C. Cells were stained with the primary alpha-smooth muscle actin (aSMA) antibody (1:100) for 1 hour at 23° C. or left out at 4° C. overnight. Cells were rinsed 2× with BSA and then the secondary antibody mix was added: Alexa 488 (1:500) and DAPI (1:1000) for 30 min at 23° C. or 1 hr at 4° C. The plates were covered during staining, then rinsed 2× in BSA and stored in PBS.
Plates were imaged using the Celigo Imaging Cytometer by Nexcelcom. The ratio of fluorescent expression of alpha-smooth muscle actin (aSMA) and DAPI were quantified to determine the amount of aSMA/cell.
The change (normalized to the control) in MFT for each concentration is shown along with the p value for all experiments relative to the control of no peptide.

For the substance IGERCQYRDLKWWELR [MBWhit44], the “MFT, Representative value from experiments (% change relative to control)” value (from here on “MFT … (% change relative to control)”) is listed as −0.702 p = (0.025) %. The “Myofibroblast transition (MFT), aSMA/cell, % change relative to control” value (10 ng/ml peptide) is on record as −0.702%. Also, the “Myofibroblast transition (MFT), aSMA/cell, % change relative to control” value (100 ng/ml peptide) was −0.5753%. For the setting “1000 ng/ml peptide”, the “Myofibroblast transition (MFT), aSMA/cell, % change relative to control” value is on record as −0.6111%.
As for LKEKKPAKEK [PC-1], the “MFT … (% change relative to control)” value is on record as −0.4788 p = (0.038) %. Besides, the “Myofibroblast transition (MFT), aSMA/cell, % change relative to control” value (1000 ng/ml peptide) was −0.4788%.
The like results for VLFEDVIAEP [MBBey 37] were, in that order, −0.2873 p = (0.018) % and −0.2873%.
Consider “CDADKKDYCLFGRCQYIVELETFRCRCQKGYYGERCVYLEL [EA-1]”, for which the “MFT … (% change relative to control)” value is recorded as −0.2928 p = (0.016) %. For the same substance, the “Myofibroblast transition (MFT), aSMA/cell, % change relative to control” value (10 ng/ml peptide) is −0.1401%. For the same substance, under “100 ng/ml peptide”, the “Myofibroblast transition (MFT), aSMA/cell, % change relative to control” value is reported as −0.2928%. Moreover, the “Myofibroblast transition (MFT), aSMA/cell, % change relative to control” value (1000 ng/ml peptide) was −0.0906%.
The like results for HNGILID [MBBey24] were, in that order, −0.05283 p = (0.005) %, −0.05283%, 0.06835% and 0.2745%.
As for CGGLPGLRKRLRKFRNK [MBb41], the “MFT … (% change relative to control)” value is reported as −0.6154 p = (0.03) %. Also, where the note is “100 ng/ml peptide”, the “Myofibroblast transition (MFT), aSMA/cell, % change relative to control” value is listed as −0.6154%. The “Myofibroblast transition (MFT), aSMA/cell, % change relative to control” value (1000 ng/ml peptide) is listed as −0.2177%.
As for ASLHGNGLRKRLRKFRNK [MBb66], the “MFT … (% change relative to control)” value is −0.3446 p = (0.024) %. For the same substance, for the setting “100 ng/ml peptide”, the “Myofibroblast transition (MFT), aSMA/cell, % change relative to control” value is given as −0.3446%.
As to PHKGLFCHFGSPANRKIGV [MBWhit47], the “MFT … (% change relative to control)” value is recorded as −0.6575 p = (0.021) %. Besides, the “Myofibroblast transition (MFT), aSMA/cell, % change relative to control” value (10 ng/ml peptide) is on record as −0.6575%. The “Myofibroblast transition (MFT), aSMA/cell, % change relative to control” value (100 ng/ml peptide) was −0.5896%. The “Myofibroblast transition (MFT), aSMA/cell, % change relative to control” value (1000 ng/ml peptide) is reported as −0.5755%.
For the substance EKKNPGLRKRLRKFRNK [MBb73], the “MFT … (% change relative to control)” value is on record as −0.07558 p = (0.04) %. For the setting “100 ng/ml peptide”, the “Myofibroblast transition (MFT), aSMA/cell, % change relative to control” value was −0.07558%.
For DCRICS [MBa1], the “MFT … (% change relative to control)” value is −0.2174 p = (0.04) %. Moreover, the “Myofibroblast transition (MFT), aSMA/cell, % change relative to control” value (100 ng/ml peptide) was −0.2174%.
EEIDA [MBb1.2]: the “MFT … (% change relative to control)” value is −0.3496 p = (0.006) %. Under “100 ng/ml peptide”, the “Myofibroblast transition (MFT), aSMA/cell, % change relative to control” value was −0.3496%.
As to VAAHELGHSLGMGH [MBm2], the “MFT … (% change relative to control)” value was −0.4235 p = (0.007) %. Moreover, the “Myofibroblast transition (MFT), aSMA/cell, % change relative to control” value (10 ng/ml peptide) is −0.4235%. Besides, under “100 ng/ml peptide”, the “Myofibroblast transition (MFT), aSMA/cell, % change relative to control” value was −0.3275%. The “Myofibroblast transition (MFT), aSMA/cell, % change relative to control” value (1000 ng/ml peptide) is listed as −0.2058%.
On to RVIWA [MBb4.2], for which the “MFT … (% change relative to control)” value is recorded as −0.2416 p = (0.003) %. For the same substance, the “Myofibroblast transition (MFT), aSMA/cell, % change relative to control” value (100 ng/ml peptide) was −0.2113%. Besides, the “Myofibroblast transition (MFT), aSMA/cell, % change relative to control” value (1000 ng/ml peptide) is given as −0.2416%.
Consider WVSGL [MBb7], for which the “MFT … (% change relative to control)” value is −0.2139 p = (0.02) %. Moreover, where the note is “10 ng/ml peptide”, the “Myofibroblast transition (MFT), aSMA/cell, % change relative to control” value is −0.2139%. Further, under “100 ng/ml peptide”, the “Myofibroblast transition (MFT), aSMA/cell, % change relative to control” value is on record as −0.1848%.
In the case of EELTRGLRKRLRKFRNK [MBb23], the “MFT … (% change relative to control)” value is −0.1203 p = (0.016) %. Also, the “Myofibroblast transition (MFT), aSMA/cell, % change relative to control” value (100 ng/ml peptide) is given as −0.1203%.
Consider AKEVEKH [MBBey4], for which the “MFT … (% change relative to control)” value is −0.4435 p = (0.007) %. In addition, for the setting “10 ng/ml peptide”, the “Myofibroblast transition (MFT), aSMA/cell, % change relative to control” value was −0.2205%. Further, the “Myofibroblast transition (MFT), aSMA/cell, % change relative to control” value (100 ng/ml peptide) is on record as −0.4435%.
